Reference: US9810700B1, “Fluorogenic calcium ion indicators and methods of using the same” (AAT Bioquest, Inc., priority 2017, dated 2017)
≈ marks a conversion by molar mass, not a printed value.

How the values were obtained:
[1] = Water solubility comparison of PEGTA compounds and conventional BAPTA calcium indicator AM esters; assay type: physicochemical; details: PBS, AM ester; for solubility: aqueous buffer, 25° C., read-out: Water solubility at 25° C. (PEGTA Compound)
[2] = tested on: CHO cells stably transfected with muscarinic receptor 1; assay: Calcium flux assay, indicator AM esters loaded into cells, with or without probenecid; assay type: cell-based; details: probenecid is not used
Experimental: In some embodiments, the fluorescent ion indicators are used in a method to measure calcium flux. Cells (e.g., CHO cells) stably transfected with muscarinic receptor 1 are plated—e.g., at 60,000 cells per 100 μl per well in F12 with 5% FBS and 1% glutamine in a 96-well black wall/clear bottom Costar plate—and incubated (e.g., in 5% CO2 at 37° C. overnight). The growth medium is removed and the cells are incubated with a fluorescent ion indicator (e.g., with 100 μl/well of 1-8 μM Fluo-3 AM, Fluo-4 AM or one or more compounds selected from Compound 22, 23, 24, 28, 33, 34, 40, 41 or 188 in Hanks and HEPES buffer for 1 hour at 37° C., 5% CO2) with or without probenecid. Carbachol or ATP is added (e.g., 50 μl/well by NOVOstar, FlexStation or FLIPR) to achieve a final concentration.
Cells expressing a GPCR of interest that signals through calcium are pre-loaded with the indicator AM esters (such as Fluo-3 AM. Fluo-4 AM, Compounds 22, 23, 24, 28, 33, 34, 40, 41 or 188) which can cross cell membrane. […] When the sample cells are stimulated with screening compounds, the receptor triggers a release of intracellular calcium, which then greatly increases the fluorescence of the intracellular indicators. […]

[3] = tested on: CHO-K1 cells; assay: ATP-stimulated calcium response monitored with FlexStation; assay type: cell-based; details: in the absence of probenecid; compared with Fluo-4 AM
Experimental: (§1) CHO-K1 cells are seeded overnight at 50,000 cells per 100 μl per well in a 96-well black wall/clear bottom costar plate. The growth medium is removed, and the cells are incubated with 100 μl of Compound 24 and Fluo-4 AM at 5 μM in Hanks and Hepes buffer in the presence of 2.5 mM probenecid for 1 hour at 37° C., 5% CO2 incubator. ATP (10 μM) is added by FlexStation to stimulate cell calcium, and the time-dependent calcium response is monitored with FlexStation.
CHO-K1 cells are seeded overnight at 50,000 cells per 100 μl per well in a 96-well black wall/clear bottom costar plate. The growth medium is removed, and the cells are incubated with 100 μl of Compound 24 and Fluo-4 AM at 5 μM in Hanks and Hepes buffer for 2 hours at 25° C. ATP (50 μL/well) is added by FlexStation to achieve the final desired concentrations.
as §1, with “CHO-K” for “CHO-K1”, “FlexStation. […]” for “FlexStation.”

Row | SMILES | solubility [1] [µg/mL] | fluorescence intensity compared with the corresponding BAPTA compounds [2] | fluorescence intensity enhancement upon calcium stimulation [3] | Water solubility at 25° C. (BAPTA Compound) [1] [μg/ml PBS] | capability of detecting calcium [2]
1 | CC(=O)OCOC(=O)CN(CCOCCOc1cc2c(cc1N(CC(=O)OCOC(C)=O)CC(=O)OCOC(C)=O)C(=O)OC21c2cc(F)c(OC(C)=O)cc2Oc2cc(OC(C)=O)c(F)cc21)CC(=O)OCOC(C)=O [Compound 22] | 1.63 (≈ 1.49 µM) |  |  |  | 
2 | CC(=O)OCOC(=O)CN(CCOCCOc1cc(-c2c3cc(F)c(=O)cc-3oc3cc(OCOC(C)=O)c(F)cc23)ccc1N(CC(=O)OCOC(C)=O)CC(=O)OCOC(C)=O)CC(=O)OCOC(C)=O [Compound 24] | 2.18 (≈ 2.11 µM) | much greater than that of the corresponding BAPTA compounds | unexpected better fluorescence intensity enhancement |  | 
3 | CC(=O)OCOC(=O)CN(CCOCCOc1cc(C2=C3C(C)=CC(C)=[N+]3[B-](F)(F)n3c(C)cc(C)c32)ccc1N(CC(=O)OCOC(C)=O)CC(=O)OCOC(C)=O)CC(=O)OCOC(C)=O [Compound 188] | 1.29 (≈ 1.34 µM) |  |  |  | 
4 | CC(=O)OCOC(=O)CN(CC(=O)OCOC(C)=O)c1ccc(C)cc1OCCOc1cc(-c2c3cc(F)c(=O)cc-3oc3cc(OCOC(C)=O)c(F)cc23)ccc1N(CC(=O)OCOC(C)=O)CC(=O)OCOC(C)=O [Fluo-4 AM, reference compound] |  |  |  | 1.26 | not capable of detecting calcium in some types of cells and tissues
